The text below walks through data of patent US9050295B2, “Composition for treatment of tuberculosis” (ETH Zurich, priority 2007, dated 2015).

The target in this test is EthR-VP16 binding to PethR (Mycobacterium bovis, UniProt Q7TVI1). Format: cell-based, E. coli BL21(DE3).

The structures appear in SMILES notation.

Sequence of EthR-VP16 binding to PethR (Q7TVI1 whole entry, looked up): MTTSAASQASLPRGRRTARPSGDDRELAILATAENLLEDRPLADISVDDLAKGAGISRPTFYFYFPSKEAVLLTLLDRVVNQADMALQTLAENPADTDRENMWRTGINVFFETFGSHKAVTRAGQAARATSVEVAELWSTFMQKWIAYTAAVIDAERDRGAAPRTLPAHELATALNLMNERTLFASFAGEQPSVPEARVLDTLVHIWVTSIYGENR

For `CCCC(=O)OCCc1ccccc1` [2-Phenylethyl butyrate], the “green fluorescence (EthR-controlled GFP expression)” value was “adjustable green fluorescence”.
